Data set [1] concerns the target T1, calcitriol receptor (specific receptor protein from the intestines of juvenile pigs) (Sus scrofa, UniProt A3RGC1).
T1 construct: a specific receptor protein from the intestines of juvenile pigs; from tissue; host or cells: intestines of juvenile pigs
T1 sequence (A3RGC1 1-427): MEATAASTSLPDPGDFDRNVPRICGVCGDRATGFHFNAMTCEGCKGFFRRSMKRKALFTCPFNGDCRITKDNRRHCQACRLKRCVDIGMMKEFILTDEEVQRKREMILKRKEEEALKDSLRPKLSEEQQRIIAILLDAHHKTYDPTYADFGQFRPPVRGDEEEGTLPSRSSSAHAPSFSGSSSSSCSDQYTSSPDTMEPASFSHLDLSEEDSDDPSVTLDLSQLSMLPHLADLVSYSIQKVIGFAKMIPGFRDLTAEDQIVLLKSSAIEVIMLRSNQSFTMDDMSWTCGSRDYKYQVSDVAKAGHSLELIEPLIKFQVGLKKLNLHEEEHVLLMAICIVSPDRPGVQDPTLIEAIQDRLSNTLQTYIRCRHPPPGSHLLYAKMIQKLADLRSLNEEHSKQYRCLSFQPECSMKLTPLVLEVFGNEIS
Nature of the data set: calcitriol-receptor test (competition with 3H-calcitriol). The class given is binding, pig. The note with it: KF = concentration of test substance / concentration of calcitriol at 50% competition.
Procedure: It is carried out using a specific receptor protein from the intestines of juvenile pigs.
250 μl of a charcoal-dextran suspension is fed to each test tube and incubated at 4° C. for 20 minutes. Then, the samples are centrifuged at 10,000×g for 5 minutes at 4° C. The supernatant is decanted and measured in a β-counter after 1 hour of equilibration in Picofluor 15™.
It is defined as a quotient of the concentrations of the respective test substance and the reference substance, which are necessary for 50% competition:
KF=Concentration of test substance at 50% competition/Concentration of reference substance at 50% competition

Data set [2] concerns HL 60 cells. Nature of the data set: antagonism of the action of calcitriol in HL 60 cells. In kind it is cell-based, human. The source says:
In the series of 25-oxazole derivatives, the compounds with increasing chain length on the heterocycle in the case of constantly good receptor affinity show considerably weaker differentiation-stimulating agonistic activity in HL 60 cells (Tab. 1). […] This property is continued with increasing chain length in radical Z of general formula I.

Data set [3] concerns HL 60 cells. Nature of the data set: differentiation induction of HL 60 cells to macrophages (NBT reduction). The note with it: DR = test substance dose / calcitriol dose for comparable semi-maximum actions; 96 hours incubation. In kind it is cell-based, human. On the procedure:
The differentiation-stimulating action of calcitriol analogues is also detected quantitatively.
It is known in the literature [Mangelsdorf, D. J. et al., J. Cell.
HL 60 cells are cultivated in tissue culture medium (RPMI 10% fetal calf serum) at 37° C. in an atmosphere of 5% CO2 in air.
For substance testing, the cells are centrifuged off, and 2.0×10^5 cells/ml in phenol red-free tissue culture medium is taken up. The test substances are dissolved in ethanol and diluted with tissue culture medium without phenol red to the desired concentration. The dilution stages are mixed with the cell suspension at a ratio of 1:10, and 100 μl each of this cell suspension that is mixed with substance is pipetted into an indentation of a 96-hole plate. For control, a cell suspension is mixed analogously with the solvent.
After incubation for 96 hours at 37° C. in 5% CO2 in air, 100 μl of an NBT-TPA solution (nitro blue tetrazolium (NBT), final concentration in the batch of 1 mg/ml, tetradecanoyl phorbolmyristate-13-acetate (TPA), final concentration in the batch of 2×10^−7 mol/l) is pipetted into each indentation of the 96-hole plate in the cell suspension.
By incubation for 2 hours at 37° C. and 5% CO2 in air, NBT is reduced to insoluble formazan because of the intracellular oxygen radical release, stimulated by TPA, in the cells that are differentiated to macrophages.
To complete the reaction, the indentations of the 96-hole plate are suctioned off, and the cells are affixed to the bottom of the plate by adding methanol and dried after affixing. To dissolve the intracellular formazan crystals that are formed, 100 μl of potassium hydroxide (2 mol/l) and 100 μl of dimethyl sulfoxide are pipetted into each indentation and ultrasonically treated for 1 minute. The concentration of formazan is measured by spectrophotometry at 650 nm.
As a yardstick for the differentiation induction of HL 60 cells to macrophages, the concentration of formed formazan applies.

Data set [4] in a line: acute hypercalcemic action in rats (serum calcium). In kind it is in vivo. The note with it: one-time subcutaneous administration, DR = test substance dose / calcitriol dose for comparable actions. Here is the method: To determine the acute hypercalcemic action of various calcitriol derivatives, the test that is described below is carried out:
During the testing time, the rats are kept in special cages to determine the excretion of water and mineral substances. Urine is collected in 2 fractions (0-16 hours and 16-22 hours). An oral dose of calcium (0.1 mmol of calcium in 6.5% alpha-hydroxypropylcellulose, 5 ml/animal) replaces at 1600 hours the calcium intake that is lacking by food deprivation. At the end of the test, the animals are killed by decapitation and exsanguinated to determine the serum-calcium values. For the primary screen test in vivo, an individual standard dose (200 μg/kg) is tested. For selected substances, the result is supported by establishing a dose-effect relation.
A hypercalcemic action is shown in serum-calcium level values that are higher than in the control.
The significance of differences between substance groups and controls and between test substance and reference substance are supported with suitable statistical processes.

Turning to `C=C1/C(=C\C=C2/CCC[C@]3(C)[C@@H]([C@H](C)/C=C/[C@@H](O)C4(c5ncc(CC)o5)CC4)CC[C@@H]23)C[C@@H](O)C[C@@H]1O` [Compound 16, (5Z,7E,22E)-(1S,3R,24R)-25-(5-ethyloxazol-2-yl)-26,27-cyclo-9,10-secocholesta-5,7,10(19),22-tetraene-1,3,24-triol], in data set [1], the “Competition Factor KF for Receptor Bonding” value (from here on “Competition Factor KF”) is reported as 3. Besides, the “antagonism of the action of calcitriol in HL 60 cells” value in the data set on HL 60 cells [2] is listed as “antagonize the action of calcitriol”. Also, the “Dose Ratio for Differentiation Induction in HL 60 Cells” value in the data set on HL 60 cells [3] is given as 1.3.

As to `C=C1/C(=C\C=C2/CCC[C@]3(C)[C@@H]([C@H](C)/C=C/[C@@H](O)C4(c5ncc(CCC)o5)CC4)CC[C@@H]23)C[C@@H](O)C[C@@H]1O` [Compound 14, (5Z,7E,22E)-(1S,3R,24R)-25-(5-Propyloxazol-2-yl)-26,27-cyclo-9,10-secocholesta-5,7,10(19),22-tetraene-1,3,24-triol], the “Competition Factor KF” value in data set [1] was 2. Besides, in data set [4], the “dose ratio DR for hypercalcemia” value is listed as 300. Moreover, the “Dose Ratio for Differentiation Induction in HL 60 Cells” value in the data set with HL 60 cells [3] is reported as 1.9.

Consider `C=C1C(=CC=C2CCCC3(C)C2CCC3C(C)C=CC(O)C2(c3ncc(CCCCC)o3)CC2)CC(O)CC1O` [Compound 17, (5Z,7E,22E)-(1S,3R,24R)-25-(5-pentyloxazol-2-yl)-26,27-cyclo-9,10-secocholesta-5,7,10(19),22-tetraene-1,3,24-triol], for which the “Competition Factor KF” value in data set [1] was 4. The “antagonism of the action of calcitriol in HL 60 cells” value in the data set on HL 60 cells [2] is given as “antagonize the action of calcitriol”. Also, the “Dose Ratio for Differentiation Induction in HL 60 Cells” value in the data set with HL 60 cells [3] is more than 100.

For `C=C1C(=CC=C2CCCC3(C)C2CCC3C(C)C=CC(O)C2(c3ncc(C)o3)CC2)CC(O)CC1O` [Compound 15, (5Z,7E,22E)-(1S,3R,24R)-25-(5-methyloxazol-2-yl)-26,27-cyclo-9,10-secocholesta-5,7,10(19),22-tetraene-1,3,24-triol], in data set [1], the “Competition Factor KF” value was found to be 2. Further, in the data set with HL 60 cells [3], the “Dose Ratio for Differentiation Induction in HL 60 Cells” value came out at 3.4.
